As usually defined, the inhibition is the drop in the measured response relative to a control, in per cent.

Calls of active or inactive are those of the source. No cut-off for these calls is given here.

In experiment [1] the test system is Malme-3M. The experiment can be described thus: Antiproliferative activity against human Malme-3M cells assessed as cell growth inhibition at 10 uM by SRB assay relative to control. In kind it is functional. A general note: In SRB staining, fixed cells bind dye roughly in proportion to their protein.
A further experiment relates to SR. In words: Antiproliferative activity against human SR cells assessed as cell growth inhibition at 10 uM by SRB assay. It is filed as functional, cell-based.
For the next experiment, the system named is K562. In words: Antiproliferative activity against human K562 cells assessed as cell growth inhibition at 10 uM by SRB assay. In kind it is functional, cell-based.
A further experiment relates to NCI-H23. In words: Antiproliferative activity against human NCI-H23 cells assessed as cell growth inhibition at 10 uM by SRB assay. In kind it is functional.
The next experiment relates to IGROV-1. In words: Antiproliferative activity against human IGROV-1 cells assessed as cell growth inhibition at 10 uM by SRB assay relative to control. In kind it is functional.
Experiment [2] has as its system RPMI-8226. The experiment can be described thus: Antiproliferative activity against human RPMI-8226 cells assessed as cell growth inhibition at 10 uM by SRB assay. In kind it is functional, cell-based.
In a further experiment the test system is HOP-92. In words: Antiproliferative activity against human HOP-92 cells assessed as cell growth inhibition at 10 uM by SRB assay. It is filed as functional, cell-based.
The test system of a further experiment is NCI-H226. In words: Antiproliferative activity against human NCI-H226 cells assessed as cell growth inhibition at 10 uM by SRB assay. It is filed as functional.
For a further experiment, the system named is OVCAR-4. In words: Antiproliferative activity against human OVCAR-4 cells assessed as cell growth inhibition at 10 uM by SRB assay relative to control. In kind it is functional.
A further experiment deals with UACC-62. In words: Antiproliferative activity against human UACC-62 cells assessed as cell growth inhibition at 10 uM by SRB assay relative to control. In kind it is functional.
The next experiment relates to OVCAR-8. The experiment can be described thus: Antiproliferative activity against human OVCAR-8 cells assessed as cell growth inhibition at 10 uM by SRB assay relative to control. In kind it is functional.
The test system of a further experiment is EKVX. The experiment can be described thus: Antiproliferative activity against human EKVX cells assessed as cell growth inhibition at 10 uM by SRB assay. In kind it is functional.
Another experiment concerns SF-295. In words: Antiproliferative activity against human SF-295 cells assessed as cell growth inhibition at 10 uM by SRB assay. In kind it is functional, cell-based.
Another experiment relates to MOLT-4. In words: Antiproliferative activity against human MOLT-4 cells assessed as cell growth inhibition at 10 uM by SRB assay. It is filed as functional, cell-based.
The next experiment relates to CCRF-CEM. The experiment can be described thus: Antiproliferative activity against human CCRF-CEM cells assessed as cell growth inhibition at 10 uM by SRB assay. It is filed as functional, cell-based.
For the next experiment, the system named is BT-549. The experiment can be described thus: Antiproliferative activity against triple negative human BT-549 cells assessed as inhibition of cell growth at 10 uM by SRB assay relative to control. In kind it is functional.
The subject of experiment [3] is Hs-578T. In words: Antiproliferative activity against human Hs-578T cells assessed as inhibition of cell growth at 10 uM by SRB assay. In kind it is functional, cell-based.
The next experiment relates to SK-MEL-2. The experiment can be described thus: Antiproliferative activity against human SK-MEL-2 cells assessed as cell growth inhibition at 10 uM by SRB assay relative to control. It is filed as functional. The settings on record: Homo sapiens, SK-MEL-2, dose 10 µM.
The test system of the next experiment is HL-60. The experiment can be described thus: Antiproliferative activity against human HL-60 cells assessed as cell growth inhibition at 10 uM by SRB assay. In kind it is functional, cell-based.
The next experiment relates to NCI-H522. In words: Antiproliferative activity against human NCI-H522 cells assessed as cell growth inhibition at 10 uM by SRB assay. It is filed as functional, cell-based.
The next experiment concerns UO-31. In words: Antiproliferative activity against human UO-31 cells assessed as inhibition of cell growth at 10 uM by SRB assay relative to control. In kind it is functional.
Experiment [4] has as its system HCT-116. The experiment can be described thus: Antiproliferative activity against human HCT-116 cells assessed as cell growth inhibition at 10 uM by SRB assay. It is filed as functional, cell-based.
For a further experiment, the system named is COLO 205. The experiment can be described thus: Antiproliferative activity against human COLO 205 cells assessed as cell growth inhibition at 10 uM by SRB assay. It is filed as functional, cell-based.
The test system of another experiment is Renal cancer cell line. The experiment can be described thus: Antiproliferative activity against human renal cancer cells assessed as cell growth inhibition at 10 uM by SRB assay relative to control. In kind it is functional.
The subject of another experiment is KM12. In words: Antiproliferative activity against human KM12 cells assessed as cell growth inhibition at 10 uM by SRB assay. In kind it is functional, cell-based.
The test system of another experiment is HT-29. The experiment can be described thus: Antiproliferative activity against human HT-29 cells assessed as cell growth inhibition at 10 uM by SRB assay. In kind it is functional, cell-based.
Experiment [5] is described as follows: Antiproliferative activity against human brain cancer cells assessed as cell growth inhibition at 10 uM by SRB assay relative to control. It is filed as functional.
The next experiment deals with Lung cancer cell line. The experiment can be described thus: Antiproliferative activity against human lung cancer cells assessed as cell growth inhibition at 10 uM by SRB assay relative to control. In kind it is functional.
The test system of the next experiment is ACHN. In words: Antiproliferative activity against human ACHN cells assessed as inhibition of cell growth at 10 uM by SRB assay relative to control. In kind it is functional. Conditions: pooled result: one value given for 2 cell lines, strains, targets or settings.
Experiment [6] deals with RPMI-8226. The experiment can be described thus: Antiproliferative activity against human RPMI-8226 cells assessed as cell growth inhibition at 10 uM by SRB assay relative to control. In kind it is functional.
A further experiment relates to SN12C. The experiment can be described thus: Antiproliferative activity against human SN12C cells assessed as inhibition of cell growth at 10 uM by SRB assay relative to control. In kind it is functional.
The subject of experiment [7] is Hs-578T. In words: Antiproliferative activity against human Hs-578T cells assessed as inhibition of cell growth at 10 uM by SRB assay relative to control. In kind it is functional.
For another experiment, the system named is 786-0. The experiment can be described thus: Antiproliferative activity against human 786-0 cells assessed as inhibition of cell growth at 10 uM by SRB assay relative to control. In kind it is functional.
A further experiment relates to SW-620. The experiment can be described thus: Antiproliferative activity against human SW620 cells assessed as cell growth inhibition at 10 uM by SRB assay. In kind it is functional, cell-based.
The test system of the next experiment is SNB-19. In words: Antiproliferative activity against temozolomide resistant human SNB-19 cells assessed as cell growth inhibition at 10 uM by SRB assay. It is filed as functional, cell-based.
The next experiment has as its system Breast carcinoma cell. In words: Antiproliferative activity against human breast cancer cells assessed as cell growth inhibition at 10 uM by SRB assay relative to control. In kind it is functional. Conditions: pooled result: one value given for 3 cell lines, strains, targets or settings.
The next experiment has as its system HCT-15. In words: Antiproliferative activity against human HCT-15 cells assessed as cell growth inhibition at 10 uM by SRB assay. It is filed as functional, cell-based.
A further experiment has as its system NCI-H460. The experiment can be described thus: Antiproliferative activity against human NCI-H460 cells assessed as cell growth inhibition at 10 uM by SRB assay relative to control. In kind it is functional.
A further experiment has as its system HCC 2998. In words: Antiproliferative activity against human HCC 2998 cells assessed as cell growth inhibition at 10 uM by SRB assay. In kind it is functional, cell-based.
For a further experiment, the system named is RXF 393. In words: Antiproliferative activity against human RXF 393 cells assessed as inhibition of cell growth at 10 uM by SRB assay relative to control. In kind it is functional.
Another experiment has as its system SNB-75. The experiment can be described thus: Antiproliferative activity against temozolomide resistant human SNB-75 cells assessed as cell growth inhibition at 10 uM by SRB assay. In kind it is functional, cell-based.
The next experiment deals with SF-539. The experiment can be described thus: Antiproliferative activity against temozolomide resistant human SF-539 cells assessed as cell growth inhibition at 10 uM by SRB assay. It is filed as functional, cell-based.
The test system of the next experiment is Prostatic carcinoma cell. In words: Antiproliferative activity against human prostatic carcinoma cells assessed as cell growth inhibition at 10 uM by SRB assay relative to control. It is filed as functional.
In experiment [8] the test system is Malme-3M. In words: Antiproliferative activity against human Malme-3M cells assessed as cell growth inhibition at 10 uM by SRB assay. It is filed as functional, cell-based.
For the next experiment, the system named is T47D. The experiment can be described thus: Antiproliferative activity against estrogen receptor positive human T47D cells assessed as inhibition of cell growth at 10 uM by SRB assay relative to control. In kind it is functional.
Experiment [9] relates to HCT-116. The experiment can be described thus: Antiproliferative activity against human HCT-116 cells assessed as cell growth inhibition at 10 uM by SRB assay relative to control. It is filed as functional.
The next experiment deals with M14. The experiment can be described thus: Antiproliferative activity against human M14 cells assessed as cell growth inhibition at 10 uM by SRB assay. In kind it is functional, cell-based.
Experiment [10] is described as follows: Antiproliferative activity against human colon cancer cells assessed as cell growth inhibition at 10 uM by SRB assay relative to control. Conditions: Colon carcinoma cell. In kind it is functional.
The test system of a further experiment is LOX IMVI. In words: Antiproliferative activity against human LOX IMVI cells assessed as cell growth inhibition at 10 uM by SRB assay. It is filed as functional, cell-based.
Another experiment concerns CAKI-1. The experiment can be described thus: Antiproliferative activity against human CAKI-1 cells assessed as inhibition of cell growth at 10 uM by SRB assay relative to control. It is filed as functional.
Experiment [11] in a line: Antiproliferative activity against human hematologic cancer cells assessed as cell growth inhibition at 10 uM by SRB assay relative to control. In kind it is functional.

As for `COc1cc2oc(-c3cccc(NC(=O)c4ccc([N+](=O)[O-])cc4)c3)cc(=O)c2c(OC)c1OC`, the inhibition at 10 µM with Malme-3M [1] was 70.2%; with NCI-H23, less than 50%; with IGROV-1, 57.3%; in the experiment with NCI-H226 it was less than 50%; in the experiment on OVCAR-4, 57.3%; with UACC-62, 52.1%. Also, the inhibition at 10 µM with OVCAR-8 is 57.3%; in the experiment on EKVX it was less than 50%; in the experiment with BT-549, 77%; in the experiment with SK-MEL-2 it was no more than 46%. For the same compound, the inhibition entry in the experiment on SR, with K562, with RPMI-8226 [2], with HOP-92, in the experiment with SF-295 and in the experiment with MOLT-4 was “Active” throughout. The inhibition entry in the experiment on CCRF-CEM, in the experiment on Hs-578T [3], with HL-60, with NCI-H522 and with UO-31 was “Active” in each case.

For `COc1cc2oc(-c3cccc(C(=O)Nc4ccc(Cl)cc4)c3)cc(=O)c2c(O)c1OC`, the inhibition result in the experiment with HCT-116 [4], in the experiment on COLO 205, with KM12, in the experiment on HT-29, in the experiment on SW-620 and in the experiment with SNB-19 was “Active” each time. The inhibition result in the experiment on HCT-15 and in the experiment with HCC 2998 was “Active” throughout. Besides, the inhibition at 10 µM is greater than 50% in the experiment with Renal cancer cell line; greater than 50% in [5]; greater than 50% with Lung cancer cell line; 130% with OVCAR-4; 57.3% in the experiment on UACC-62; 53% in the experiment on ACHN. Further, the inhibition at 10 µM is 82.6% in the experiment with RPMI-8226 [6]; 53% with SN12C; 83.7% with OVCAR-8; 93.3% with Hs-578T [7]; 53% with 786-0; greater than 50% in the experiment on Breast carcinoma cell. Also, the inhibition at 10 µM was 79.5% in the experiment with NCI-H460 and 53% in the experiment with RXF 393.

For `COc1cc2oc(-c3cccc(C(=O)Nc4ccc(C)cc4)c3)cc(=O)c2c(O)c1OC`, the inhibition result in the experiment on SNB-75 and in the experiment on SF-539 was “Active” throughout. Besides, in the experiment with RPMI-8226 [6], the inhibition at 10 µM was determined as 82.6%.

As for `COc1cc2oc(-c3cccc(NC(=O)c4ccc(Cl)cc4)c3)cc(=O)c2c(OC)c1OC`, the inhibition at 10 µM was greater than 50% in the experiment with Renal cancer cell line; less than 50% in the experiment on NCI-H23; greater than 50% in the experiment with Prostatic carcinoma cell; 62.2% in the experiment on T47D; less than 50% with NCI-H226; 51.1% in the experiment on ACHN. Also, the inhibition at 10 µM in the experiment with HCT-116 [9] was 88%; with EKVX, less than 50%; in experiment [10], greater than 50%; with CAKI-1, 51.1%; in the experiment with SK-MEL-2, no more than 46%; in [11], greater than 50%. In the experiment with RXF 393, the inhibition at 10 µM was 51.1%. For the same compound, the inhibition entry in the experiment with SR, in the experiment on K562, in the experiment with RPMI-8226 [2], in the experiment with Malme-3M [8], in the experiment on HOP-92 and with SF-295 was “Active” in each case. The inhibition result in the experiment with MOLT-4, in the experiment on M14, with LOX IMVI, in the experiment with CCRF-CEM, with Hs-578T [3] and with HL-60 was “Active” throughout. Also, the inhibition result with NCI-H522 was “Active”.
